Here are results for one compound from paper PMC10326281, “Insights into the mechanisms governing P01 scorpion toxin effect against U87 glioblastoma cells oncogenesis” (Frontiers in Pharmacology, 2023).

Data set [1] relates to MDA-MB231 breast cancer cells. Put plainly: Cell viability (MTT), MDA-MB231. The format is cell-based, human. To be noted: 25–200 μg/mL, 24 h, 10,000 cells per well, n = 3. The text has this: (§1) The ATCC (American Type Culture Collection, Rockville, MD, United States) cancer cell lines U87 (glioblastoma), MDA-MB231 (breast cancer) and LS174 (colon adenocarcinoma) were routinely cultured in DMEM supplemented with 10% fœtal bovine serum (FBS), 1% l-glutamine and 100 IU/mL penicillin/streptomycin. […] Rat SK2 cDNA cloned into pJA5 plasmid was a gift from Dr. Skolnik (university Langone Medical center, New York). Human SK3 cDNA cloned into Pipru vector was a king gift from Pr. Soriani (Université Côte d’Azur, CNRS, Inserm, Nice, France).
(§2) The human cell lines U87, MDA-MB231, or LS174 (10,000 cells per well) were treated with P01 peptide at different concentrations (25; 50; 100 and 200 μg/mL). After 24 h, the wells were washed with phosphate-buffered saline (PBS) and then the 3-(4,5-dimethylthiazol-2-yl)-2,5-diphenyltetrazolium bromide (MTT) (0.5 mg/mL) was added to the cells as previously described ([Kouba et al., 2020]). The crystals formed after the reduction of MTT by mitochondrial dehydrogenases were dissolved with dimethylsulfoxyde (DMSO). The quantification of live cells was achieved by measuring absorbance at 560 nm using a spectrophotometer (Thermo-Multiskan EX, Shanghai, China).

Data set [2] relates to U87 glioblastoma cells. Put plainly: Cell viability (MTT), U87. It counts as cell-based, human. To be noted: 25–200 μg/mL, 24 h, 10,000 cells per well, n = 3.
Text: as §1, §2

Data set [3] deals with U87 glioblastoma cells. Put plainly: Cell proliferation test (crystal violet), U87. It counts as cell-based, human.
Text: as §1
(§3) The effect of the P01 peptide on cell proliferation was studied. The human cell lines U87, MDA-MB231 or LS174 (5,000 cells per well) were treated with 2; 5 and 10 μg/mL of P01 peptide. The plates were placed at 37°C for 72 h. Cellular proliferation was quantified at 560 nm by a spectrophotometer (Thermo-Multiskan EX, Shanghai, China) after treatment with 1% glutaraldehyde and staining with 0.1% crystal violet.
(§4) Every 24 h, a series of wells was washed with PBS, the cells were fixed with 1% glutaraldehyde, and preserved in PBS to follow the kinetics of proliferation. After 72 h, the cells were stained with crystal violet 0.1% and quantified by measuring the absorbance at 560 nm using a spectrophotometer (Thermo-Multiskan EX, Shanghai, China).

The test system of data set [4] is LS174 colon adenocarcinoma cells. Put plainly: Cell proliferation test (crystal violet), LS174. As to conditions: 2–10 μg/mL, 72 h, n = 3. It counts as cell-based, human.
Text: as §1, §3, §4

Data set [5] has the same test system. Put plainly: Cell adhesion assay, LS174. It counts as cell-based, human. As to conditions: data not shown.
Text: as §1
Adhesion assays were performed as previously described by ([Sarray et al., 2007]). Glioblastoma U87 cells in suspension (10^6 cells/mL) were treated with 50 μg/mL of P01 and deposited on wells coated with purified extracellular matrix (ECM): Fg at 50 μg/mL; Fn at 10 μg/mL; Coll-I at 50 μg/mL; laminin (Lam) at 15 μg/mL or poly-L-lysine (PL) at 20 μg/mL for U87. MDA-MB231 and LS174 cells were also used in their adequate ECM: Fg and Coll-I respectively. They were incubated to adhere to the substrate for 2 h or 24 h at 37°C. After washing, attached cells were fixed, stained by 0.1% crystal violet, lysed with 1% SDS and quantified by measuring absorbance at 560 nm. The specific adhesion is obtained by subtracting the absorbance obtained in the absence of adhesion substrate (no specific control). […]

Data set [6] shares this test system. Put plainly: Cell viability (MTT), LS174. It counts as cell-based, human. To be noted: 25–200 μg/mL, 24 h, 10,000 cells per well, n = 3.
Text: as §1, §2

In another data set the test system is α5 integrin. Put plainly: U87 cell adhesion in presence of anti-integrin antibodies, α5. The format is cell-based, human. As to conditions: 50 μg/mL P01, 30 min pre-incubation, 2 h at 37°C, anti-α5 (1/200), n = 3. On the procedure: To study the implication of integrins in the P01 peptide activity, adhesion assays using anti-integrin blocking antibodies: anti- α1β1 (1/200), anti- αvβ3 (1/200), anti- α5 (1/200) and anti- β3 (1/200) were performed as described above, except that cells were pretreated with the active peptide P01 at 50 μg/mL.

The test system of the next data set is SK2 channel. As to conditions: Jurkat cells; ref Shakkottai et al., 2001; cited from earlier work. The text has this:
(§5) This can be explained by the differential expression of either functional SK2 isoforms or other membrane receptors between HEK293 and Jurkat cells.

Another data set has as its system SK3 channel. To be noted: Jurkat cells; ref Shakkottai et al., 2001; cited from earlier work.
Text: as §5

The next data set relates to human SK3 channel. Put plainly: Whole-cell patch clamp, human SK3 in HEK293T cells. It counts as cell-based. To be noted: human SK3 in HEK cells, currents recorded at 0 mV, pCa 6.
Text: as §1
HEK293T-hSK3 and HEK293-rSK2 cells were selected using the puromycin and neomycin resistance gene respectively. HEK cells were routinely cultured in DMEM supplemented with 5% FBS and 1% l-glutamine. All cell lines were maintained at 37°C in a humid atmosphere of 5% CO2 in air.
Experiments were performed with cells seeded into 35-mm Petri dishes at 3,000 to 6,000 cells per cm^2. All experiments were performed using the conventional whole-cell recording configuration of the patch-clamp technique ([Girault et al., 2011]). For HEK cells expressing SK2 or SK3 channels, voltages clamp ramp protocols were used with a duration of 2 s, with varying voltages - 100 to +100 mV, with a holding potential of 0 mV. […] Also, at 0 mV, the membrane potential currents will be recorded mainly K^+ currents and not Cl^− currents.
Background: In patch-clamp work, channel activity is measured electrically.

Converted amounts (≈) assume the structure as drawn. Where a SMILES comes first, the peptide text is derived from it. Bridges are numbered along the chain shown (N, C = ends).

As to `CC[C@H](C)[C@H](NC(=O)[C@@H]1CCCN1C(=O)[C@H](CCC(=O)O)NC(=O)[C@@H]1CSSC[C@@H]2NC(=O)[C@H](Cc3c[nH]cn3)NC(=O)[C@H](CCC(=O)O)NC(=O)[C@@H]3CCCN3C(=O)[C@@H]3CSSC[C@H](NC(=O)[C@H](CCCCN)NC(=O)[C@H](CC(=O)O)NC(=O)[C@H](CC(N)=O)NC(=O)[C@H](CC(=O)O)NC(=O)[C@H](CSSC[C@H](NC(=O)[C@H](CO)NC(=O)[C@@H](N)C(C)C)C(=O)N[C@@H](CCC(=O)O)C(=O)N[C@@H](CC(=O)O)C(=O)N3)NC(=O)[C@H](CCCCN)NC(=O)[C@H](C)NC(=O)[C@H](CCC(N)=O)NC(=O)[C@H](C)NC(=O)[C@H](CCCCN)NC(=O)[C@H](CCC(N)=O)NC(=O)[C@H]([C@@H](C)O)NC(=O)[C@H](CO)NC2=O)C(=O)N[C@@H](C(C)C)C(=O)N1)C(=O)O` [P01] (H-VSCEDCPEHCSTQKAQAKCDNDKCVCEPI-OH; disulfide 3-19, 6-24, 10-26 (inferred); N-terminus and C-terminus assumed), the “cytotoxic effect (cell viability)” value (in [1]; in the data set with U87 glioblastoma cells [2]; in data set [6]) was “did not have a cytotoxic effect” in each case. Also, the “IC50 (viability/proliferation)” value in the data set on U87 glioblastoma cells [3] (72 h of incubation) worked out at 10 µg/mL (≈ 3.15 µM). The “kinetic effect on proliferation” value in the data set on U87 glioblastoma cells [3] (P01 at 10 μg/mL, time course to 72 h, n = 3) is reported as “inhibition appeared after 48 h of treatment”. In [4], the “effect on cell proliferation” value is “no effect”. The effect on adhesion entry in data set [5] is recorded as “not affected”. The “effect on adhesive function of α5” value in the data set on α5 integrin is on record as “reduced the adhesive function”. Moreover, the “blocking activity on SK2” value in the data set on SK2 channel is given as “little or no blocking activity”. In the data set on SK3 channel, the “blocking activity on SK3” value is reported as “little or no blocking activity”. Also, the “effect on SK3 current” value in the data set on human SK3 channel is on record as “no effect”.
